The values below come from PubChem BioAssay (NCI).

SMILES strings stand for the structures.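 Compound exposure: 48 hours, 5 concentrations, 96-well plates. Definition used: TGI = concentration required for complete inhibition of growth.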

Some test systems named below: HS 578T breast; SK-MEL-28 melanoma; MDA-MB-231 breast; U251 CNS; DU-145 prostate; HT29 colon; HOP-62 NSCLC; OVCAR-3 ovarian; SK-OV-3 ovarian; SF-295 CNS.
Holding throughout (assay): NCI anticancer screen, dose series, 48 h

In the case of `O=C(Nc1ccccc1C(=O)NCc1ccccc1)/C(=C/c1ccccc1)NC(=O)c1ccccc1`, the TGI in the experiment with HS 578T breast, in the experiment on SK-MEL-28 melanoma, in the experiment with MDA-MB-231 breast, with U251 CNS, in the experiment on DU-145 prostate and with HT29 colon was over 100 µM throughout. Besides, the TGI in the experiment with HOP-62 NSCLC, in the experiment with OVCAR-3 ovarian, in the experiment with SK-OV-3 ovarian and with SF-295 CNS was over 100 µM throughout.

With `CC(C)(C)CC(C)(C)c1cc(O)c(O)c(CN2CCCCC2)c1`, the TGI was 41.3 µM with HS 578T breast; 32.8 µM with SK-MEL-28 melanoma; 32.6 µM in the experiment on MDA-MB-231 breast; 24.3 µM in the experiment with U251 CNS; 30.5 µM in the experiment with DU-145 prostate; 19.7 µM in the experiment with HT29 colon. Also, the TGI was 30.1 µM in the experiment with HOP-62 NSCLC, 28 µM with OVCAR-3 ovarian, 34.8 µM in the experiment on SK-OV-3 ovarian and 32.3 µM in the experiment on SF-295 CNS.

`CC(C)/C(Cl)=N\OC(NC(=O)P(=O)(c1ccccc1)c1ccccc1)(C(F)(F)F)C(F)(F)F`: the TGI in the experiment with HS 578T breast is over 100 µM; in the experiment on SK-MEL-28 melanoma it was 28.2 µM; in the experiment on MDA-MB-231 breast it was 34.4 µM; with U251 CNS, 12 µM; in the experiment on DU-145 prostate it was 72 µM; in the experiment on HT29 colon, 59.1 µM. Besides, the TGI in the experiment on HOP-62 NSCLC is 32.9 µM; in the experiment with OVCAR-3 ovarian it was 18.4 µM; in the experiment on SK-OV-3 ovarian it was over 100 µM; in the experiment on SF-295 CNS it was 79.5 µM.

Turning to `CC(=O)NC1C(OCc2ccccc2)OC(CO)C(O)C1OC(C)C(=O)NC(C(=O)NC(CCC(=O)NCCCCNc1c2ccccc2nc2cccc([N+](=O)[O-])c12)C(N)=O)C(C)C` (stereo not given), the TGI was 42.6 µM in the experiment with HS 578T breast; 7.19 µM in the experiment with SK-MEL-28 melanoma; 25.5 µM in the experiment on MDA-MB-231 breast; over 56.7 µM in the experiment on U251 CNS; 19.6 µM in the experiment on DU-145 prostate; 8.71 µM in the experiment on HT29 colon. Further, the TGI in the experiment on HOP-62 NSCLC is 11.7 µM; with OVCAR-3 ovarian it was 6.14 µM; in the experiment on SK-OV-3 ovarian it was over 63.3 µM; with SF-295 CNS it was 43.1 µM.

Turning to `O=C1c2c(O)cccc2-c2nn(CCNCCO)c3ccc(NCCNCCO)c1c23`, the TGI with HS 578T breast was 0.535 µM; in the experiment with SK-MEL-28 melanoma, 1.97 µM; with MDA-MB-231 breast, 2.51 µM; with U251 CNS, 0.195 µM; in the experiment with DU-145 prostate, 0.0707 µM; in the experiment on HT29 colon it was 13.1 µM. Besides, the TGI worked out at 0.63 µM with HOP-62 NSCLC, 5.86 µM in the experiment on OVCAR-3 ovarian, 1.14 µM with SK-OV-3 ovarian and 1.39 µM in the experiment with SF-295 CNS.

Regarding `C=C=C(CC(CC(=C)Br)(C(=O)OC)C(=O)OC)S(=O)(=O)c1ccccc1`, the TGI in the experiment on HS 578T breast is 6.37 µM; in the experiment with SK-MEL-28 melanoma it was 3.23 µM; with MDA-MB-231 breast, 4.93 µM; with U251 CNS, 2.95 µM; with DU-145 prostate, 3.35 µM; in the experiment on HT29 colon, 2.95 µM. In addition, the TGI with HOP-62 NSCLC is 12.4 µM; with OVCAR-3 ovarian it was 4.98 µM; in the experiment with SK-OV-3 ovarian, 30.2 µM; with SF-295 CNS, 26.9 µM.

For the compound `c1ccc(/C(=N/Nc2ccncn2)c2ccccn2)cc1`, the TGI in the experiment with HS 578T breast was 29.9 µM; in the experiment on SK-MEL-28 melanoma it was over 100 µM; with MDA-MB-231 breast, over 100 µM; in the experiment with U251 CNS, over 100 µM; in the experiment on DU-145 prostate it was over 100 µM; in the experiment with HT29 colon it was over 100 µM. For the same compound, the TGI is over 100 µM with HOP-62 NSCLC, 32.5 µM in the experiment with OVCAR-3 ovarian, 75.7 µM in the experiment on SK-OV-3 ovarian and 64.9 µM in the experiment with SF-295 CNS.

In the case of `COc1ccc2cc(CNCCCCCCNCc3ccc4cc(OC)ccc4c3)ccc2c1`, the TGI with HS 578T breast was 3.62 µM; in the experiment on SK-MEL-28 melanoma, 1.42 µM; in the experiment on MDA-MB-231 breast it was 1.38 µM; in the experiment on U251 CNS, 0.601 µM; with DU-145 prostate, 2.99 µM; in the experiment with HT29 colon it was 0.383 µM. In addition, the TGI in the experiment with HOP-62 NSCLC stood at 3.07 µM; in the experiment on OVCAR-3 ovarian it was 1.17 µM; in the experiment with SK-OV-3 ovarian, 3.24 µM; in the experiment with SF-295 CNS it was 0.961 µM.

For the compound `CCOP(=O)(O)CN1CCNCCN(CP(=O)(O)OCC)CCNCC1`, the TGI with HS 578T breast, in the experiment with SK-MEL-28 melanoma, with MDA-MB-231 breast, with U251 CNS, in the experiment on DU-145 prostate and in the experiment on HT29 colon was over 100 µM in each case. Moreover, the TGI in the experiment with HOP-62 NSCLC, with OVCAR-3 ovarian, in the experiment on SK-OV-3 ovarian and in the experiment on SF-295 CNS was over 100 µM in each case.

Take `CN(C)CCCNc1ccc2nnn3c4ccc(O)cc4c(=O)c1c23`: the TGI was 13.3 µM in the experiment on HS 578T breast; 22.5 µM in the experiment on SK-MEL-28 melanoma; 23.6 µM in the experiment with MDA-MB-231 breast; 18.7 µM in the experiment with U251 CNS; 18.6 µM with DU-145 prostate; 15.6 µM in the experiment with HT29 colon. The TGI came to 17.6 µM with HOP-62 NSCLC, 23 µM in the experiment on OVCAR-3 ovarian, 23.4 µM in the experiment with SK-OV-3 ovarian and 18.7 µM in the experiment with SF-295 CNS.

For `CCOP(=O)(OCC)/C(=C/c1cccs1)CC(C)=O`, the TGI with HS 578T breast, in the experiment on SK-MEL-28 melanoma, with MDA-MB-231 breast, with U251 CNS, in the experiment on DU-145 prostate and in the experiment on HT29 colon was over 100 µM in each case. Moreover, the TGI with HOP-62 NSCLC, in the experiment on OVCAR-3 ovarian, with SK-OV-3 ovarian and in the experiment with SF-295 CNS was over 100 µM in each case.

In the case of `CN(Cc1cnc2nc(N)nc(N)c2n1)c1ccc(C(=O)NC(CO)CCCO)cc1` (stereo not given), the TGI with HS 578T breast, in the experiment with SK-MEL-28 melanoma, in the experiment on MDA-MB-231 breast, with U251 CNS, with DU-145 prostate and in the experiment with HT29 colon was over 100 µM in each case. The TGI in the experiment on HOP-62 NSCLC, in the experiment on OVCAR-3 ovarian, in the experiment on SK-OV-3 ovarian and in the experiment with SF-295 CNS was over 100 µM in each case.

For `O=C(O)COc1cc(-c2ccccc2)nc2cc(F)ccc12`, the TGI with HS 578T breast, in the experiment with SK-MEL-28 melanoma, with MDA-MB-231 breast, in the experiment on U251 CNS, in the experiment with DU-145 prostate and in the experiment with HT29 colon was over 100 µM each time. Moreover, the TGI in the experiment with HOP-62 NSCLC, with OVCAR-3 ovarian, in the experiment on SK-OV-3 ovarian and with SF-295 CNS was over 100 µM each time.

Turning to `Nc1ccc(S(=O)(=O)Nc2nc3ccccc3nc2N2CCCCCC2)cc1`, the TGI in the experiment with HS 578T breast is over 100 µM; in the experiment on SK-MEL-28 melanoma, 39.4 µM; in the experiment on MDA-MB-231 breast, over 100 µM; in the experiment with U251 CNS it was 46.4 µM; with DU-145 prostate, over 100 µM; in the experiment with HT29 colon it was over 100 µM. Besides, the TGI in the experiment with HOP-62 NSCLC was 52.6 µM; in the experiment on OVCAR-3 ovarian it was 40.2 µM; with SK-OV-3 ovarian it was over 100 µM; in the experiment with SF-295 CNS, 57.3 µM.

As to `CCOC(=O)c1cc2c([N+](=O)[O-])c(N)ccc2s1`, the TGI with HS 578T breast, with SK-MEL-28 melanoma, with MDA-MB-231 breast, in the experiment with U251 CNS, in the experiment on DU-145 prostate and in the experiment on HT29 colon was over 100 µM throughout. The TGI in the experiment on HOP-62 NSCLC, with OVCAR-3 ovarian, with SK-OV-3 ovarian and in the experiment on SF-295 CNS was over 100 µM each time.

For `CC(C)C(C/C=C1\CC(CO)(COC(=O)C2CCCCC2)OC1=O)C(C)C` (stereo not given), the TGI was found to be 31.8 µM in the experiment with HS 578T breast; 33.8 µM in the experiment with SK-MEL-28 melanoma; 36.1 µM with MDA-MB-231 breast; 44.1 µM in the experiment with U251 CNS; 26.9 µM in the experiment with DU-145 prostate; 79.5 µM in the experiment with HT29 colon. The TGI in the experiment on HOP-62 NSCLC is 27.5 µM; with OVCAR-3 ovarian it was 35.7 µM; in the experiment on SK-OV-3 ovarian, over 100 µM; in the experiment with SF-295 CNS, 33.2 µM.

In the case of `CC(=O)Nc1ccc(OC/C(N)=N/NC(=O)c2ccncc2)cc1`, the TGI with HS 578T breast, with SK-MEL-28 melanoma, in the experiment on MDA-MB-231 breast, with U251 CNS, in the experiment with DU-145 prostate and in the experiment with HT29 colon was over 100 µM throughout. The TGI in the experiment on HOP-62 NSCLC, with OVCAR-3 ovarian, in the experiment on SK-OV-3 ovarian and with SF-295 CNS was over 100 µM throughout.

For `O=C(CCN1CCN2c3ccccc3CCC2C1)c1ccc(F)cc1` (stereo not given), the TGI was over 100 µM in the experiment with HS 578T breast; 32.2 µM with SK-MEL-28 melanoma; over 100 µM in the experiment on MDA-MB-231 breast; over 100 µM in the experiment on U251 CNS; 90.3 µM in the experiment with DU-145 prostate; 41.7 µM with HT29 colon. Besides, the TGI was 52.8 µM with HOP-62 NSCLC, 71.4 µM in the experiment on OVCAR-3 ovarian, over 100 µM in the experiment with SK-OV-3 ovarian and over 100 µM in the experiment on SF-295 CNS.

With `NCC(O)CSCc1ccc(Cl)cc1` (stereo not given), the TGI in the experiment with HS 578T breast, in the experiment with SK-MEL-28 melanoma, in the experiment on MDA-MB-231 breast, in the experiment with U251 CNS, in the experiment on DU-145 prostate and in the experiment on HT29 colon was over 100 µM each time. Moreover, the TGI in the experiment with HOP-62 NSCLC, in the experiment on OVCAR-3 ovarian, with SK-OV-3 ovarian and with SF-295 CNS was over 100 µM each time.

Regarding `O=C1CC(=O)n2cnc3cccc(c32)N1`, the TGI in the experiment on HS 578T breast, in the experiment with SK-MEL-28 melanoma, in the experiment on MDA-MB-231 breast, in the experiment with U251 CNS, in the experiment on DU-145 prostate and in the experiment with HT29 colon was over 100 µM in each case. The TGI with HOP-62 NSCLC, with OVCAR-3 ovarian, in the experiment with SK-OV-3 ovarian and in the experiment on SF-295 CNS was over 100 µM throughout.
